According to patent publication US9289412B2, “Role of limonoid compounds as neuroprotective agents” (The Johns Hopkins University, priority 2006, dated 2016):
Like-named read-outs stand apart in the source and are kept apart here.

Tested on: rat mixed hippocampal cultures
Assay: 3-NP neurotoxicity assay, MTT viability, rat mixed hippocampal cultures
Format: cell-based
Conditions: 1 h preincubation, test concentration (10 μM); for inhibition at 10 µM: Rattus norvegicus
Method: For example, a cell viability assay can be used in a preliminary screen on a large series of compounds each of which is tested at a fixed concentration. In some embodiments, mixed hippocampal cell cultures are prepared as described in, e.g., Haughey et al. (1999), J Neurochem, 73(4):1363-1374, and Haughey et al (2004), J Neurosci, 24(1):257-268. Subsequently, the cultures are pretreated for one hour in the presence of a candidate neuroprotective agent and then incubated with a cytotoxic agent for about 18 hours. Examples of cytotoxic agents include, but are not limited to, oxidative stressors (e.g., 3-nitropropionic acid (3-NP) or H2O2), excitatory amino acids (e.g., kainate), or neurotoxic proteins (e.g., Hiv Tat, or Aβ peptides). […] The level of protection (“percent protection”) provided by the test compound at a given test concentration in vitro can be expressed as: […]
A variety of methods for determining cell viability may be used. In some embodiments, cell viability is assessed based on the “MTT” assay method described in Mosmann (1983), J Immunol Methods, 65(1-2):55-63, or a variant thereof. This assay is based on the ability of a mitochondrial dehydrogenase enzyme from viable cells to cleave the tetrazolium rings of the pale yellow MTT and form dark blue formazan crystals, which are trapped in cells and readily quantified by ELISA spectrophotometry.
We sought to evaluate the protective efficacy of a number of modified terpenoid compounds against the against many different neurotoxins, ranging from the chemotoxic 6-OHDA, NMDA, 3-nitropropionic acid (3-NP), and viral proteins such as Tat and gp120. Thus, we established an in vitro neuroprotection assay using rat mixed hippocampal cultures, in which we evaluated the protective efficacy of neuroprotective compounds disclosed herein. The oxidative stressor 3-NP was used to elicit toxicity in the rat hippocampal cultures to mimic the oxidative damage, reactive oxygen species production and ensuing neurodegeneration resulting from HIV infection. Another measure of neurotoxicity which results from HIV infection was evaluated by exposure of the hippocampal cultures to HIV-1 Tat (Li et al (2005), Neurotox Res, 8(1-2): 119-134).
Rat mixed hippocamal neuronal cultures were generated from freshly dissected rat hippocampi (embryonic day 18) in neurobasal media containing 5% fetal bovine serum and 2% B27 supplement. The cells were plated into 96 well plates at a density of 4×10^5 cells/mL and routinely used on days 11-14 following culturing. Cell viability was assessed with MTT [3-(4,5-dimethylthiazol-2-yl)-2,5-diphenyltetrazolium bromide] assay. The MTT assay is based on the ability of a mitochondrial dehydrogenase enzyme from viable cells to cleave the tetrazolium rings of the pale yellow MTT and form dark blue formazan crystals. See Mosmann (1983), J Immunol Methods, 65(1-2):55-63. These crystals are largely impermeable to cell membranes, and thus accumulate within healthy cells. The resultant formazan precipitates are solubilized with DMSO and read on a multiwell scanning spectrophotometer (ELISA reader). The number of surviving cells is directly proportional to the level of the formazan product created.
Mixed hippocampal cultures were incubated with 3-NP (0.5-10 mM) for 18 hours and then assessed for viability using an MTT assay.
Cultures were preincubated with GPI 1046 or Resveratrol for one hour prior to an 18 hour exposure to 3 mM 3-NP. […] The same neuroprotective compounds were evaluated for efficacy against HIV-1 Tat protein toxicity using the same 1 hour preincubation protocol.

[1] = Table 2, vs 3 mM 3-NP 18 h, read-out: % Protection
[2] = Table 3, 3 mM 3-NP 18 h, read-out: % Protection vs 3-NP

SMILES | inhibition at 10 µM [1] [%] | % Protection (Table 2, vs 3 mM 3-NP 18 h) [%] | inhibition at 10 µM [2] [%] | other results
CC(=O)O[C@@H]1CC2C(C)(C)C(=O)C3OC3[C@]2(C)C2CC[C@@]3(C)C(=CC(=O)O[C@@H]3c3ccoc3)[C@@]21C (stereo partly drawn) [1 (2)alpha- EPOXYDEOXYDIHYDRO- GEDUNIN, 1 (2)alpha-EPOXYDEOXYDIHYDROGEDUNIN] | 14 |  |  | 
CC1(C)C(=O)[C@@H]2O[C@@H]2[C@@]2(C)C1C[C@@H](O)[C@]1(C)C2CC[C@@]2(C)[C@H](c3ccoc3)OC(=O)C3OC321 (stereo partly drawn) [1,2alpha- EPOXYDEACET[…], 1,2alpha-EPOXYDEACETOXYDIHYDROGEDUNIN] |  | 25 |  | 
CC1(C)C2CC(=O)[C@]3(C)C(CC[C@@]4(C)[C@H](c5ccoc5)OC(=O)C5OC543)[C@@]2(C)[C@@H](O)C[C@H]1O (stereo partly drawn) [1,3-DIDEACETYL-7-DEACETOXY-7-OXOKHIVORIN] |  | 15 | 15 | 
CC(=O)O[C@@H]1CC2C(C)(C)[C@H](O)C[C@H](O)[C@]2(C)C2CC[C@]3(C)[C@@H](c4ccoc4)OC(=O)[C@H]4O[C@]43[C@@]21C (stereo partly drawn) [1,3-DIDEACETYLKHIVORIN] | 129 |  |  | 
CC1(C)C2CC(=O)[C@]3(C)C(CC[C@@]4(C)[C@H](c5ccoc5)OC(=O)[C@H]5O[C@]543)[C@@]2(C)C(=O)C[C@H]1O (stereo partly drawn) [1,7-DIDEACETOXY-1,7-DIOXO-3-DEACETYLKHIVORIN] |  | 15 | 15 | 
CC(=O)OC1CC2C(C)(C)CCC(=O)[C@]2(C)C2CC[C@@]3(C)[C@H](c4ccoc4)OC(=O)C4OC43[C@]12C (stereo partly drawn) [2,3-DIHYDROISOGEDUNIN] |  | 44 |  | 
CC(=O)O[C@H]1C[C@@H](O)C(C)(C)[C@@H]2C[C@@H](OC(C)=O)[C@]3(C)[C@H](CC[C@@]4(C)[C@@H](c5ccoc5)OC(=O)[C@H]5O[C@@]534)[C@@]12C [3-DEACETYLKHIVORIN] |  |  |  | % Protection vs 3-NP (Table 3, 3 mM 3-NP 18 h): 7%
CC(=O)O[C@H]1CC[C@@]2(C)C(C[C@@H](OC(C)=O)[C@@]3(C)C4=CC(=O)O[C@@H](c5ccoc5)[C@]4(C)CCC23)C1(C)C (stereo partly drawn) [3-DEOXO-3beta-ACETOXYDEOXYDIHYDROGEDUNIN] | 56 |  |  | 
CC(=O)O[C@@H]1CC2C(C)(C)[C@H](O)C=C[C@]2(C)C2CC[C@]3(C)C(=CC(=O)O[C@H]3c3ccoc3)[C@@]21C (stereo partly drawn) [3-alpha- HYDROXYDEOXYGEDININ, 3-alpha-HYDROXYDEOXYGEDININ] |  | 28 |  | 
CC(=O)O[C@@H]1CC[C@@]2(C)C(C[C@@H](OC(C)=O)[C@@]3(C)C4=CC(=O)O[C@@H](c5ccoc5)[C@]4(C)CCC23)C1(C)C (stereo partly drawn) [3alpha- ACETOXYDIHYDRODEOXY- GEDUNIN, 3alpha-ACETOXYDIHYDRODEOXYGEDUNIN] | 151 |  |  | 
C=C1C2CC[C@]3(C)[C@@H](c4ccoc4)OC(=O)CC13O[C@H]1CC(O)C(C)(C)C(CC(=O)OC)[C@@]21C (stereo partly drawn) [3alpha-HYDROXY-3-DEOXYANGOLENSIC ACID METHYL ESTER] | 35 |  |  | 
CC(=O)O[C@H]1CC[C@@]2(C)C(C[C@H](OC(C)=O)[C@@]3(C)C4=CC(=O)OC(c5ccoc5)[C@]4(C)CCC23)C1(C)C (stereo partly drawn) [3beta,7beta-DIACETOXYDEOXODEACETOXYDEOXYDIHYDROGEDUNIN] | 61 |  |  | 
CC(=O)O[C@H]1CC[C@]2(C)[C@H]3CC[C@@]4(C)[C@H](c5ccoc5)OC(=O)[C@H]5O[C@]54[C@]3(C)[C@H](OC(C)=O)C[C@H]2C1(C)C [3beta- ACETOXYDEOXODIHYDRO- GEDUNIN, 3beta-ACETOXYDEOXODIHYDROGEDUNIN] | 39 |  | 39 | 
CC(=O)OC1CC2C(C)(C)[C@@H](O)CC[C@]2(C)C2CC[C@]3(C)[C@H](c4ccoc4)OC(=O)[C@H]4O[C@]43[C@]12C (stereo partly drawn) [3beta- HYDROXYDEOXODIHYDRO- GEDUNIN, 3beta-HYDROXYDEOXODIHYDROGEDUNIN] | 82 |  |  | 
C=C1C2CC[C@@]3(C)[C@H](c4ccoc4)OC(=O)C[C@]13O[C@H]1C[C@@H](OC(C)=O)C(C)(C)[C@H](CC(=O)OC)[C@@]21C [3beta-ACETOXYDEOXYANGOLENSIC ACID, METHYL ESTER] | 128 |  |  | 
CC1(C)C2CC(=O)[C@]3(C)C(CC[C@@]4(C)[C@H](c5ccoc5)OC(=O)[C@H]5O[C@]543)[C@@]2(C)C=C[C@@H]1O (stereo partly drawn) [3beta-HYDROXYDEOXYDESACETOXY-7-OXOGEDUNIN] | 30 |  |  | 

SMILES | inhibition at 10 µM [1] [%] | % Protection (Table 2, vs 3 mM 3-NP 18 h) [%] | inhibition at 10 µM [2] [%] | other results
C=C1C2CC[C@@]3(C)[C@H](c4ccoc4)OC(=O)C[C@]13O[C@H]1CC(=O)C(C)(C)[C@H](C(O)C(=O)OC)[C@@]21C (stereo partly drawn) [6-HYDROXYANGOLENSIC ACID METHYL ESTER] | 26 |  | 26 | 
CC1(C)C(=O)C=C[C@@]2(C)C1CC(=O)[C@@]1(C)C3=CC(=O)O[C@@H](c4ccoc4)[C@]3(C)CCC12 (stereo partly drawn) [7-DEACETOXY-7- OXODEOXYGEDUNIN, 7-DEACETOXY-7-OXODEOXYGEDUNIN] | 24 |  |  | 
CC(=O)O[C@H]1C[C@@H](OC(C)=O)C(C)(C)C2CC(=O)[C@]3(C)C(CC[C@@]4(C)[C@H](c5ccoc5)OC(=O)[C@H]5O[C@]543)[C@]21C (stereo partly drawn) [7-DEACETOXY-7- OXOKHIVORIN, 7-DEACETOXY-7-OXOKHIVORIN] | 36 |  | 36 | 
COC(=O)[C@@H]1OC(=O)C2OC23[C@@]1(C)CCC1[C@]2(C)C(CC(=O)[C@]13C)C(C)(C)[C@H](OC(C)=O)C[C@@H]2OC(C)=O (stereo partly drawn) [7-DEACETOXY-7-OXOKHIVORINIC ACID, METHYL ESTER] |  | 42 |  | 
CC(=O)O[C@H]1C[C@@H](OC(C)=O)C(C)(C)C2C[C@@H](O)[C@]3(C)C(CC[C@@]4(C)[C@H](c5ccoc5)OC(=O)[C@H]5O[C@]543)[C@]21C (stereo partly drawn) [7-DEACETYLKHIVORIN] |  | 32 | 32 | 
CC(=O)O[C@H]1C[C@@H](OC(C)=O)C(C)(C)C2C[C@H](OC(C)=O)[C@]3(C)C(CC[C@@]4(C)[C@H](c5ccoc5)OC(=O)[C@H]5O[C@]543)[C@]21C (stereo partly drawn) [7-EPIKHIVORIN] | 65 |  |  | 
COC(=O)[C@@H]1OC(=O)C2OC23[C@@]1(C)CCC1[C@]2(C)C(C[C@H](O)[C@]13C)C(C)(C)[C@H](OC(C)=O)C[C@@H]2OC(C)=O (stereo partly drawn) [7beta-HYDROXY-7-DESACETOXYKHIVORINIC ACID, METHYL ESTER] |  | 84 |  | 
COC(=O)C[C@H]1C(C)(C)C2(O)OC34CC2C(=O)[C@]1(C)C3CC[C@]1(C)C4=CC(=O)O[C@H]1c1ccoc1 (stereo partly drawn) [8beta-HYDROXYCARAPIN, 3,8-HEMIACETAL] |  |  |  | % Protection vs 3-NP (Table 3, 3 mM 3-NP 18 h): 9%
COC(=O)C[C@H]1C2(C)CC34OC5(C)O[C@@]6([C@H](OC(C)=O)C(OC(C)=O)[C@]7(C)C(/C(=C(/O)C(C)C)C(=O)O[C@H]7c7ccoc7)[C@@]6(O5)[C@H](OC(C)=O)[C@@]3(O)C2OC(=O)C(C)C)[C@]14C (stereo partly drawn) [BUSSEIN] |  |  | 18 | 
COC(=O)C[C@H]1C(C)(C)C(=O)[C@@H]2CC3=C(CC[C@]4(C)C3=CC(=O)O[C@H]4c3ccoc3)[C@@]1(C)C2=O [CARAPIN-8(9)-ENE] |  |  |  | % Protection vs 3-NP (Table 3, 3 mM 3-NP 18 h): 38%
COC(=O)C[C@H]1C(C)(C)C(=O)[C@@H]2CC3C4=CC(=O)O[C@@H](c5ccoc5)[C@]4(C)CC[C@@H]3[C@@]1(C)C2=O (stereo partly drawn) [CARAPIN] |  |  | 18 | 
CC1(C)C(=O)C=C[C@@]2(C)C1CC(=O)[C@]1(C)C2CC[C@@]2(C)[C@H](c3ccoc3)OC(=O)[C@H]3O[C@]321 (stereo partly drawn) [DEACETOXY-7-OXOGEDUNIN] | 38 |  | 38 | 
CC1(C)C(=O)C=C[C@@]2(C)C1C[C@@H](O)[C@]1(C)C2CC[C@@]2(C)[C@H](c3ccoc3)OC(=O)[C@H]3O[C@]321 (stereo partly drawn) [DEACETYLGEDUNIN] |  | 19 | 19 | 
CC(=O)OC1CC2C(C)(C)CCC[C@]2(C)C2CC[C@]3(C)C(=CC(=O)O[C@H]3c3ccoc3)[C@]12C (stereo partly drawn) [DEOXODEOXYDIHYDRO- GEDUNIN, DEOXODEOXYDIHYDROGEDUNIN] |  | 77 |  | 
CC(=O)O[C@@H]1CC2C(C)(C)CCC[C@]2(C)C2CC[C@@]3(C)[C@H](c4ccoc4)OC(=O)C4OC43[C@@]21C (stereo partly drawn) [DEOXODIHYDROGEDUNIN] | 101 |  |  | 
